Measurements: publication PMC8151276, “An Integrated Approach toward NanoBRET Tracers for Analysis of GPCR Ligand Engagement” (Molecules, 2021)

Tests used:
Assay type in all cases: binding
[1] = molecular target: T1, CXCR1 (Homo sapiens, UniProt P25024); assay: NanoBRET screen HiBiT-CXCR1 in HEK293; settings: CXCR1
T1 construct: purchased Promega (in-house HiBiT-GPCR construct library, NanoBRET)
T1 sequence (P25024 1-350): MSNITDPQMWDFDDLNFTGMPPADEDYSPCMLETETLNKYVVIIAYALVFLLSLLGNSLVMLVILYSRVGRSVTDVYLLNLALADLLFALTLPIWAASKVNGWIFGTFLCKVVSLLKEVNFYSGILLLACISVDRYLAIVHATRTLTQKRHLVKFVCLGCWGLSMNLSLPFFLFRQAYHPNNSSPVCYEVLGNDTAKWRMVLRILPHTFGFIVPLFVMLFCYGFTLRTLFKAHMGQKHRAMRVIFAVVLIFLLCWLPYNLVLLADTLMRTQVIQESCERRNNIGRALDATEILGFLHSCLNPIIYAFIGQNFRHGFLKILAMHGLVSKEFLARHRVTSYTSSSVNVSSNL
Description: (§1) Each tracer candidate was screened across the entire library of HiBiT-GPCR constructs using NanoBRET as the detection modality. As depicted in Figure 4A, the specificity of interactions was evaluated through decrease in BRET due to competitive displacement of a bound tracer by excess parental compound. Each tracer was analyzed for binding to each HiBiT-GPCR fusion in the absence and in the presence of competing parental compound. Briefly, HEK293 cells were transfected with HiBiT-GPCR constructs diluted into promoterless DNA to reduce expression and maximize translocation to the cell surface. Each tracer candidate was then screened at concentrations of 1 μM and 0.1 μM across cells expressing these fusions. Cells were treated for 1.5 h with tracer either alone or in the presence of 20 μM competing parental compound (i.e., control). BRET was measured upon addition of purified LgBiT and subsequent complementation with HiBiT genetically fused to a GPCR. The specificity of interactions was assessed through a decrease in BRET signal due to competitive displacement of the bound tracer. To further gauge the robustness of these interactions, the fold response over the control (i.e., BRETtracer/BRETcontrol) was calculated. We chose a 1.5-fold response, which translates to ≥7-fold signal over noise as the minimal threshold required to score an interaction as positive. […]. Below we highlight the screening results obtained for our exemplary fluorescent tracers based on Clozapine, Amitriptyline and AZD1283.
(§2) HiBiT-GPCR DNA constructs were diluted in 10 mM Tris pH 8 to a final concentration of 0.01 μg/μL, arrayed in 96-well plates and stored at −20 °C. For transfection, HEK293 cells were suspended in Opti-MEM (without phenol red) supplemented with 2% fetal bovine serum (Seradigm) and 100 units/mL penicillin–streptomycin (Gibco) at a final concentration of 220,000 cells/mL and dispensed into white 96-well plates at 90 μL/well. Subsequent transfections and screens were carried using an Agilent Bravo Automated Liquid Handling Platform. First, the 96-well HiBiT DNA arrays were diluted 25-fold in Opti-MEM (without serum or phenol red) to a final concentration of 0.0004 μg/μL and 20 μL of the diluted DNAs were transferred into new 96-well plates. Next, promoterless carrier DNA (1 μg/μL) was diluted 25-fold (0.04 μg/μL) and then dispensed into the diluted arrays at 20 μL/well. Following brief mixing, Viafect transfection reagent (Promega) diluted 16-fold into Opti-MEM was dispensed into the plates at 40 μL/well. After mixing by pipetting, plates were incubated for 10 min on the pipetting station deck. The DNA-transfection reagent complexes were then added to plates containing cells. To facilitate the screen, 10 μL of DNA-transfection reagent complexes were added in duplicates to the top 4 and bottom 4 rows, resulting in two identical 48-well arrays per plate. Plates with transfected cells were incubated for 18–20 h at 37 °C/5% CO2. A screen of each tracer across the entire library using two different concentrations requires duplicate plates of transfected cells. Depending on the number of tracers being screened, transfections can be scaled up using the same ratios. The next day, for each tracer, four 20× screening solutions in tracer dilution buffer (Promega) were prepared: two duplicates at final concentration of 20 μM and two duplicates at a final concentration of 2 μM. A competing unmodified compound was added to one of each duplicate at a final concentration of 400 μM. The four resulting solutions were diluted 4-fold in Opti-MEM without serum or phenol red to generate 5× solutions (5 µM and 0.5 µM tracer +/− 100 μM competing compound). To screen the library, a BioTek MultiFlo FX liquid dispenser was used to dispense 22.5 µL of tracer solution to the top 4 rows and 22.5 µL tracer + competing compound solution to the 4 bottom rows. Plates were briefly mixed on an orbital shaker and incubated for 1.5 h at room temperature. […]

[2] = molecular target: T2, DRD5 (Homo sapiens, UniProt P21918); assay: NanoBRET screen HiBiT-DRD5 in HEK293; settings: DRD5
T2 construct: purchased Promega (in-house HiBiT-GPCR construct library, NanoBRET)
Description: as §1, §2

[3] = molecular target: T3, AVPR2 (Homo sapiens, UniProt P30518); assay: NanoBRET screen HiBiT-AVPR2 in HEK293; settings: AVPR2
T3 construct: purchased Promega (in-house HiBiT-GPCR construct library, NanoBRET)
Description: as §1, §2

[4] = molecular target: T4, PTGER4 (Homo sapiens, UniProt P35408); assay: NanoBRET screen HiBiT-PTGER4 in HEK293; settings: PTGER4
T4 construct: purchased Promega (in-house HiBiT-GPCR construct library, NanoBRET)
Description: as §1, §2

[5] = molecular target: T5, HCRTR1 (Homo sapiens, UniProt O43613); assay: NanoBRET screen HiBiT-HCRTR1 in HEK293; settings: HCRTR1
T5 construct: purchased Promega (in-house HiBiT-GPCR construct library, NanoBRET)
T5 sequence (O43613 1-425): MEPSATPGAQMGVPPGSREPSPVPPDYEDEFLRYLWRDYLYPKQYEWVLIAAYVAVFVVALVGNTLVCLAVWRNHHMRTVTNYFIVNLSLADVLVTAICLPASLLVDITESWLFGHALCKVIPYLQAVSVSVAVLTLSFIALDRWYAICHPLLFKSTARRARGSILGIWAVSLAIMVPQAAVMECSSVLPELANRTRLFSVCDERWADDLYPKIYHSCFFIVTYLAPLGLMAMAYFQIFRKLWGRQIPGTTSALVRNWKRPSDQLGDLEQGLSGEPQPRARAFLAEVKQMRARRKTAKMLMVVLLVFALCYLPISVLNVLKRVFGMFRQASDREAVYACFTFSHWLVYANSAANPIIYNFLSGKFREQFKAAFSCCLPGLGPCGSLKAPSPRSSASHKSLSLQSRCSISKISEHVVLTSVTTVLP
Description: as §1, §2

T4 sequence (P35408 whole entry): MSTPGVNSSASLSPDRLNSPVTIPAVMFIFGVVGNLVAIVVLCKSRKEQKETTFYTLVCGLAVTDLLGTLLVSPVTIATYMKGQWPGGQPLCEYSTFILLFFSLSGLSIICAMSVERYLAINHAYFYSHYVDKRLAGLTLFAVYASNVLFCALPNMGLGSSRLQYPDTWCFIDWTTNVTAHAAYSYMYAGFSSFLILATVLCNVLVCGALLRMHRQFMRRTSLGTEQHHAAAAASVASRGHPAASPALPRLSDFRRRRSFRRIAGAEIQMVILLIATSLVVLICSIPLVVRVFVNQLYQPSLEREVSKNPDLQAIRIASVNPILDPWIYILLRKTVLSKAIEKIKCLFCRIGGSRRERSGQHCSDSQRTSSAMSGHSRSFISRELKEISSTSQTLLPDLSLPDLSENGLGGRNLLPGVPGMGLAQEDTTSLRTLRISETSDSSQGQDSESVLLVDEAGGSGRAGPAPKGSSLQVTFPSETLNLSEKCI
T3 sequence (P30518 whole entry): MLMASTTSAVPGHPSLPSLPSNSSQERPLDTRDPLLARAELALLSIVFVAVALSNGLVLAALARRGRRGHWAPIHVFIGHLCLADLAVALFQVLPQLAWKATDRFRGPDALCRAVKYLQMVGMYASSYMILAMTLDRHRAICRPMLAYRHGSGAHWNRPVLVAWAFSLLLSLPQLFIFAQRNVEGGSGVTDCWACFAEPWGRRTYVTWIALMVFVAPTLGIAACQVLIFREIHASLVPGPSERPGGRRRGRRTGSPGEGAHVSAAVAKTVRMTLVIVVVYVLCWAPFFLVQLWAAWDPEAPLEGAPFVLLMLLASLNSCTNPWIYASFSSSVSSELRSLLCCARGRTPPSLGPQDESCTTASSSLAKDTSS
T2 sequence (P21918 whole entry): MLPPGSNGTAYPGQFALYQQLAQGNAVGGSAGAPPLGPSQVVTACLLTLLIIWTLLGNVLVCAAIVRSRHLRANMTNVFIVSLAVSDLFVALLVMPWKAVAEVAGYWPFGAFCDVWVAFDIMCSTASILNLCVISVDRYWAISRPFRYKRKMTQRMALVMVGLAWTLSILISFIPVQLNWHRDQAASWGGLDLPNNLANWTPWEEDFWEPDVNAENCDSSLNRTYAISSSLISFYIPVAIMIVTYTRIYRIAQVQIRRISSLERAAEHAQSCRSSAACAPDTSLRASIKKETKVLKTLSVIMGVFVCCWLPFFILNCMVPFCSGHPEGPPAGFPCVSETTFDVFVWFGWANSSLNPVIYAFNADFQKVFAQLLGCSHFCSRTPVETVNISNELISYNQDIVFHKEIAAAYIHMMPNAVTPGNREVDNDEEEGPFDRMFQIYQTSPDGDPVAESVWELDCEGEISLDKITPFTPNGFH

## CCCn1c(=O)c2[nH]c(-c3ccc(OCC(=O)NCCNC(=O)CCOCCNC(=O)c4ccc(CNC(=O)CCc5ccc6n5[B-](F)(F)[N+]5=C(c7ccc[nH]7)C=CC5=C6)cc4)cc3)nc2n(CCC)c1=O [XAC-3-NB590]
[1]; tracer 0.1μM
  NanoBRET Fold Response: 1.05
[1]; tracer 1μM
  NanoBRET Fold Response: 0.91
[2]; tracer 0.1μM
  NanoBRET Fold Response: 0.99
[2]; tracer 1μM
  NanoBRET Fold Response: 1.00
[3]; tracer 0.1μM
  NanoBRET Fold Response: 0.73
[3]; tracer 1μM
  NanoBRET Fold Response: 0.91
[4]; tracer 0.1μM
  NanoBRET Fold Response: 1.15
[4]; tracer 1μM
  NanoBRET Fold Response: 1.01
[5]; tracer 0.1μM
  NanoBRET Fold Response: 0.91
[5]; tracer 1μM
  NanoBRET Fold Response: 0.88
